Drawing on ChEMBL document CHEMBL4513141, “CO-ADD screening of NIH (USA) - Clinical Collection” (2021), this text covers MIC and CC50 for 21 compounds.

The term CC50 denotes the concentration giving 50% cytotoxicity. A high value points to better tolerance by the cells.

The structures appear in SMILES notation. Converted amounts (≈) assume the structure as drawn. Structures can show the parent of a compound that is named as a salt.

Assay [1] deals with Escherichia coli. Put plainly: microbe, parasite or virus in culture. As to conditions: ATCC 25922, 18 h, ASSAY_TEST Inhibition of Bacterial Growth, detection method Absorption (OD600), MEDIA CAMHB, plate type 384well, NBS, CORNING #3640.
Description: Antibacterial activity against Escherichia coli ATCC 25922 (CO-ADD:GN_001); MIC in CAMBH media using NBS plates, by OD(600)
In assay [2] the test system is Cryptococcus neoformans.
Description: Antifungal activity against Cryptococcus neoformans H99 ATCC 208821 (CO-ADD:FG_002); MIC in YNB media using NBS plates, by Resazurin OD(600-570)
For assay [3], the system named is Klebsiella pneumoniae. In words: microbe, parasite or virus in culture. As to conditions: ATCC 700603, 18 h, ASSAY_TEST Inhibition of Bacterial Growth, detection method Absorption (OD600), MEDIA CAMHB, plate type 384well, NBS, CORNING #3640.
Description: Antibacterial activity against Klebsiella pneumoniae MDR ATCC 70063 (CO-ADD:GN_003); MIC in CAMBH media using NBS plates, by OD(600)
Assay [4] deals with Staphylococcus aureus. In words: microbe, parasite or virus in culture. Particulars: ATCC 43300, 18 h, ASSAY_TEST Inhibition of Bacterial Growth, detection method Absorption (OD600), MEDIA CAMHB, plate type 384well, NBS, CORNING #3640.
Description: Antibacterial activity against Staphylococcus aureus MRSA ATCC 43300 (CO-ADD:GP_020); MIC in CAMBH media, using NBS plates, by OD(600)
For assay [5], the system named is HEK293. In words: cells. It is filed as functional, Homo sapiens, ATCC CRL1573. As to conditions: Homo sapiens, ATCC CRL1573, HEK293; ASSAY_TEST Inhibition of Cell Viability; detection method Resazurin; Fluorescence (ex560/em590); MEDIA DMEM with 10% FBS; plate type 384well; TC; CORNING #3712; time 18 hr. Background: Resazurin is reduced to fluorescent resorufin, in cell work by metabolically active cells.

In assay [6] the test system is Candida albicans. In words: microbe, parasite or virus in culture. As to conditions: ATCC 90028, ASSAY_TEST Inhibition of Fungal Growth, detection method Absorption (OD530), plate type 384well, NBS, CORNING #3640.
Description: Antifungal activity against Candida albicans ATCC 90028 (CO-ADD:FG_001); MIC in YNB media using NBS plates, by OD630
In assay [7] the test system is Acinetobacter baumannii. In words: microbe, parasite or virus in culture. Particulars: ATCC 19606, 18 h, ASSAY_TEST Inhibition of Bacterial Growth, detection method Absorption (OD600), MEDIA CAMHB, plate type 384well, NBS, CORNING #3640.
Description: Antibacterial activity against Acinetobacter baumannii ATCC 19606 (CO-ADD:GN_034); MIC in CAMBH media using NBS plates, by OD600
Assay [8] relates to Pseudomonas aeruginosa. In words: microbe, parasite or virus in culture. As to conditions: ATCC 27853, 18 h, ASSAY_TEST Inhibition of Bacterial Growth, detection method Absorption (OD600), MEDIA CAMHB, plate type 384well, NBS, CORNING #3640.
Description: Antibacterial activity against Pseudomonas aeruginosa ATCC 27853 (CO-ADD:GN_042); MIC in CAMBH media using NBS plates, by OD(600)

`COc1cc(NC(C)CCCN)c2ncccc2c1` (stereo not drawn) [PRIMAQUINE PHOSPHATE]: the MIC in assay [1], in assay [2], in assay [3], in assay [4], in assay [6] and in assay [7] was above 10 µM in each case. The MIC in assay [8] was above 10 µM. The CC50 in assay [5] is above 10 µM.

Take `Clc1ccc(CO/N=C(\Cn2ccnc2)c2ccc(Cl)cc2Cl)c(Cl)c1` [OXICONAZOLE NITRATE]: the MIC in assay [1] is above 10 µM; in assay [2], at most 0.0781 µM; in assay [3], above 10 µM; in assay [4] it was above 10 µM; in assay [6], at most 0.0781 µM; in assay [7] it was above 10 µM. Also, the MIC in assay [8] is above 10 µM. Further, the CC50 in assay [5] is above 10 µM.

With `CO[C@H]1C=CO[C@@]2(C)Oc3c(C)c(O)c4c(O)c(c5c(nc6cc(C)ccn65)c4c3C2=O)NC(=O)C(C)=CC=C[C@H](C)[C@H](O)[C@@H](C)[C@@H](O)[C@@H](C)[C@H](OC(C)=O)[C@@H]1C`, the MIC in assay [1] is 10 µM (≈ 7.86 µg/mL); in assay [2], above 10 µM; in assay [3], above 10 µM; in assay [4], at most 0.0781 µM; in assay [6], above 10 µM; in assay [7] it was 10 µM (≈ 7.86 µg/mL). Also, the MIC in assay [8] is 2.5 µM (≈ 1.96 µg/mL). In assay [5], the CC50 is above 10 µM.

For `CCn1cc(C(=O)O)c(=O)c2cc(F)c(N3CCNCC3)cc21` [NORFLOXACIN], the MIC is 0.625 µM (≈ 0.2 µg/mL) in assay [1]; above 10 µM in assay [2]; 10 µM (≈ 3.19 µg/mL) in assay [3]; 5 µM (≈ 1.6 µg/mL) in assay [4]; above 10 µM in assay [6]; 5 µM (≈ 1.6 µg/mL) in assay [7]. The compound further registered an MIC in assay [8] above 10 µM. In addition, the cytotoxic concentration (CC50) in assay [5] is above 10 µM.

`C[C@H]1COc2c(C3(N)CC3)c(F)cc3c(=O)c(C(=O)O)cn1c23` [PAZUFLOXACIN]: the MIC in assay [1] is at most 0.0781 µM; in assay [2], above 10 µM; in assay [3], 1.25 µM (≈ 0.398 µg/mL); in assay [4] it was 0.625 µM (≈ 0.199 µg/mL); in assay [6], above 10 µM; in assay [7], 2.5 µM (≈ 0.796 µg/mL). In addition, the MIC in assay [8] came to 1.25 µM (≈ 0.398 µg/mL). In assay [5], this compound displayed a CC50 above 10 µM.

For the compound `CCC(C)n1ncn(-c2ccc(N3CCN(c4ccc(OCC5COC(Cn6cncn6)(c6ccc(Cl)cc6Cl)O5)cc4)CC3)cc2)c1=O` (stereo not drawn) [ITRACONAZOLE], the MIC is above 10 µM in assay [1]; 0.156 µM (≈ 0.11 µg/mL) in assay [2]; above 10 µM in assay [3]; above 10 µM in assay [4]; at most 0.0781 µM in assay [6]; above 10 µM in assay [7]. The compound also displayed an MIC in assay [8] above 10 µM. The compound further registered a 50% cytotoxic concentration (CC50) in assay [5] above 10 µM.

For `CON=C(C(=O)N[C@@H]1C(=O)N2C(C(=O)O)=C(COC(N)=O)CS[C@H]12)c1ccco1`, the MIC was 10 µM (≈ 4.24 µg/mL) in assay [1]; above 10 µM in assay [2]; above 10 µM in assay [3]; 5 µM (≈ 2.12 µg/mL) in assay [4]; above 10 µM in assay [6]; above 10 µM in assay [7]. The compound further showed an MIC in assay [8] above 10 µM. The compound further registered a CC50 in assay [5] above 10 µM.

Take `CCc1c2c(nc3ccc(OC(=O)N4CCC(N5CCCCC5)CC4)cc13)-c1cc3c(c(=O)n1C2)COC(=O)[C@]3(O)CC` [IRINOTECAN HYDROCHLORIDE]: the MIC in assay [1], in assay [2], in assay [3], in assay [4], in assay [6] and in assay [7] was above 10 µM in each case. In addition, the MIC in assay [8] was above 10 µM. The compound also yielded a CC50 in assay [5] of 0.341 µM.

For the compound `CCCCCCCCCOc1ccc2[nH]cc(CCN)c2c1`, the MIC in assay [1], in assay [2], in assay [3], in assay [4], in assay [6] and in assay [7] was above 10 µM each time. Moreover, the MIC in assay [8] was above 10 µM. Besides, the CC50 in assay [5] is 4.05 µM.

Consider `C=CC1=C(C(=O)O)N2C(=O)[C@@H](NC(=O)/C(=N\O)c3csc(N)n3)[C@H]2SC1`, for which the MIC in assay [1] is 2.5 µM (≈ 0.989 µg/mL); in assay [2], above 10 µM; in assay [3], 10 µM (≈ 3.95 µg/mL); in assay [4] it was 5 µM (≈ 1.98 µg/mL); in assay [6] it was above 10 µM; in assay [7], above 10 µM. Also, the MIC in assay [8] is above 10 µM. This compound also registered a CC50 in assay [5] above 10 µM.

Regarding `Cc1noc(NS(=O)(=O)c2ccc(N)cc2)c1C` [SULFISOXAZOLE], the MIC in assay [1], in assay [2], in assay [3], in assay [4], in assay [6] and in assay [7] was above 10 µM each time. The compound further returned an MIC in assay [8] above 10 µM. In assay [5], the CC50 is above 10 µM.

With `COc1ccc2[nH]c([S+]([O-])Cc3ncc(C)c(OC)c3C)nc2c1` (stereo not drawn) [OMEPRAZOLE MAGNESIUM], the MIC in assay [1], in assay [2], in assay [3], in assay [4], in assay [6] and in assay [7] was above 10 µM in each case. Further, the MIC in assay [8] was above 10 µM. Further, the CC50 in assay [5] was above 10 µM.

Turning to `CCn1cc(C(=O)O)c(=O)c2cc(F)c(N3CCN(C)CC3)cc21` [PEFLOXACIN MESYLATE], the MIC in assay [1] is 0.156 µM; in assay [2], above 10 µM; in assay [3], 5 µM; in assay [4], 1.25 µM; in assay [6], above 10 µM; in assay [7] it was 10 µM. In assay [8], this compound displayed an MIC of 1.25 µM. Also, the CC50 in assay [5] was above 10 µM.

As to `Oc1cc(Cl)ccc1Oc1ccc(Cl)cc1Cl` [TRICLOSAN], the MIC in assay [1] is above 10 µM; in assay [2] it was above 10 µM; in assay [3], above 10 µM; in assay [4] it was 2.5 µM (≈ 0.724 µg/mL); in assay [6], above 10 µM; in assay [7], above 10 µM. In assay [8], the MIC is above 10 µM. Also, the 50% cytotoxic concentration (CC50) in assay [5] is above 10 µM.

In the case of `COc1cc(C)c(Cc2cnc(N)nc2N)cc1OC` [ORMETOPRIM], the MIC is 5 µM (≈ 1.37 µg/mL) in assay [1]; above 10 µM in assay [2]; above 10 µM in assay [3]; 5 µM (≈ 1.37 µg/mL) in assay [4]; above 10 µM in assay [6]; above 10 µM in assay [7]. Further, the MIC in assay [8] was above 10 µM. Besides, the CC50 in assay [5] is above 10 µM.

For the compound `COc1cc2nc(N3CCN(C(=O)c4ccco4)CC3)nc(N)c2cc1OC`, the MIC in assay [1], in assay [2], in assay [3], in assay [4], in assay [6] and in assay [7] was above 10 µM in each case. Further, the MIC in assay [8] was above 10 µM. For the same compound, the cytotoxic concentration (CC50) in assay [5] is above 10 µM.

Take `C[C@@H](c1ncncc1F)[C@](O)(Cn1cncn1)c1ccc(F)cc1F` [VORICONAZOLE]: the MIC is above 10 µM in assay [1]; 0.625 µM (≈ 0.218 µg/mL) in assay [2]; above 10 µM in assay [3]; above 10 µM in assay [4]; at most 0.0781 µM in assay [6]; above 10 µM in assay [7]. This compound yielded an MIC in assay [8] above 10 µM. The CC50 in assay [5] was above 10 µM.

In the case of `CC1(C)SC2C(NC(=O)COc3ccccc3)C(=O)N2C1C(=O)O` (stereo not drawn), the MIC in assay [1], in assay [2], in assay [3], in assay [4], in assay [6] and in assay [7] was above 10 µM throughout. In addition, the MIC in assay [8] is above 10 µM. In assay [5], the CC50 was above 10 µM.

For the compound `CCN(CC)C(=S)SSC(=S)N(CC)CC`, the MIC was above 10 µM in assay [1]; 5 µM (≈ 1.48 µg/mL) in assay [2]; above 10 µM in assay [3]; above 10 µM in assay [4]; 2.5 µM (≈ 0.741 µg/mL) in assay [6]; above 10 µM in assay [7]. The MIC in assay [8] is above 10 µM. The CC50 in assay [5] amounted to 5.04 µM.

As to `CC[C@H]1OC(=O)[C@H](C)[C@@H](O[C@H]2C[C@@](C)(OC)[C@@H](O)[C@H](C)O2)[C@H](C)[C@@H](O[C@@H]2O[C@H](C)C[C@H](N(C)C)[C@H]2O)[C@](C)(O)C[C@@H](C)CN(C)[C@H](C)[C@@H](O)[C@]1(C)O` [AZITHROMYCIN], the MIC in assay [1] was 10 µM (≈ 7.49 µg/mL); in assay [2], above 10 µM; in assay [3], above 10 µM; in assay [4], above 10 µM; in assay [6], above 10 µM; in assay [7], above 10 µM. Also, in assay [8], the MIC was found to be 10 µM (≈ 7.49 µg/mL). Further, the CC50 in assay [5] is above 10 µM.

`Cc1onc(-c2c(Cl)cccc2Cl)c1C(=O)N[C@@H]1C(=O)N2[C@@H]1SC(C)(C)[C@@H]2C(=O)O`: the MIC in assay [1] is above 10 µM; in assay [2] it was above 10 µM; in assay [3], above 10 µM; in assay [4] it was 0.625 µM (≈ 0.294 µg/mL); in assay [6] it was above 10 µM; in assay [7], above 10 µM. In assay [8], this compound showed an MIC above 10 µM. The same compound came in with a CC50 in assay [5] above 10 µM.
